In patent US7629317B2, “Control of growth and repair of gastro-intestinal tissues by gastrokines and inhibitors” (The University of Chicago, priority 2001, dated 2009):
“Also recorded” adds a separate entry of the source. Where two headings read alike, the source gives them in different places.

How the values were obtained:
[1] = tested on: NCI N-87 cells; test: Growth of NCI N-87 gastric carcinoma cells; format: cell-based; details: concentration-dependent
Protocol: (§1) To characterize the capacity of gastric and intestinal cells to respond to AMP-18, AGS gastric adenocarcinoma cells, HAE human gastric antrum mucosa primary cultures transformed with SV40 large T antigen, rat diploid small intestinal epithelial cells of the IEC-6 (FIG. 15) and IEC-18 lines, NCI N-87 gastric carcinoma cells, and SK-GT5 gastroesophageal adenocarcinoma cells were studied; human WI-38 fibroblasts and HeLa cells served as non-GI control cell lines. Mitogenesis was assayed by performing cell counts 3 to 4 days after exposing cells to the agent of interest, trypsinizing the culture to prepare single cells, and confirming this while counting them in a hemocytometer.

[2] = tested on: HAE cells; test: Wound restitution (migration) of scrape-wounded HAE cell monolayers; format: cell-based, human; details: peptide 8 μg/ml, EGF 50 ng/ml; 24-72 hr
Protocol: (§2) To measure growth (left panel), HAE cells were plated in 60-mm dishes. Peptide 77-97 (8 μg/ml), or EGF (50 ng/ml), or both were added to the medium and the number of cells counted 4 days later. […] Values are means±SE for 3 cultures. To measure migration (right panel), cells were grown in 60-mm dishes to prepare a confluent monolayer. The medium was aspirated and replaced with fresh medium containing 0.01% calf serum (CS). The monolayer was mechanically wounded by scraping with a razor blade. Detached cells were removed by aspirating medium, and rinsing the remaining cells twice with fresh medium containing 0.01% CS. Fresh medium (5 ml) containing CS (0.01%) and insulin (100 U/L) was added to wounded cultures. Either peptide 77-97 (8 μg/ml), EGF (50 ng/ml), or both were added to duplicate cultures. Migration was assessed at 24, 48 and 72 hr after wounding by measuring the distance (in mm) that cells had migrated from the wound edge using a microscope eyepiece reticle (10-mm long; 0.1-mm markings). Migrating cells at 12 randomly chosen sites along a 0.25-mm stretch of the wound edge were measured at 40-fold magnification. Migration at 2 different sites was measured for each of 2 separate wounds made in each culture. Values are the mean distance cells moved into the denuded area from the edge of 4 different wounds in 2 cultures±SE.
Confluent monolayer cultures were mechanically wounded by scraping with a razor blade, and the distance that cells migrated from the wound edge was measured using a microscope eyepiece reticle.

[3] = tested on: MDCK cells; test: Transepithelial electrical resistance (TER) of MDCK cell monolayers; format: cell-based; details: monochloramine 0.1 mM, 90 min; EGF 50 ng/ml
Protocol: Monolayer cultures of MDCK cells were grown on permeable polycarbonate filters (0.4-μm pore size) (Transell) in DMEM containing FBS (2%) without (control) or with peptide 77-97 (8 μg/ml) for 8 days. TER was measured 24 hr after the cells were plated, and at specified times thereafter using an epithelial volt-ohm meter (EVOM, Millipore). Following each measurement, medium containing FBS without or with peptide was changed (0, 48, and 144 hr), and additional peptide 77-97 (8 μg/ml) was added at 30 and 72 hr. At 72 hr, TER in cultures that received peptide 77-97 was twice as high as in control cultures. Values are means for 3 cultures; variance is <10% of the mean. TER was measured from 3 different areas on the filter.
(§3) Panel A: When a stable TER was reached (330 Ω·cm^2) in MDCK cell monolayers the medium was changed to DMEM containing FBS (0.2%), and either peptide 77-97 (8 μg/ml) or EGF (50 ng/ml). After 18 hr, peptide 77-97 or EGF were added to the specified wells. One hour later monochloramine (0.1 mM), like the other agents, was added to the apical and basal compartments of the Transwell. […] Panels B, C: Caco2/bbe (C2) subclone monolayers were grown on collagen-coated polycarbonate filters until a stable TER was reached (225 Ω·cm^2). Spent medium was replaced with fresh medium containing FBS (0.1%) alone or with peptide 77-97 (8 μg/ml). After 18 hr, monochloramine (0.3 mM, B) or indomethacin (0.1 mM, C) was added to both compartments of the Transwell. At time 0, cultures received either vehicle (control), vehicle plus oxidant or indomethacin, or peptide 77-97 and oxidant or indomethacin. TER of injured cultures treated with vehicle decreased by ˜35% at 90 min, whereas peptide-treated cultures declined ˜10%.

[4] = tested on: IEC-6 cells; test: Growth of intestinal epithelial IEC-6 cells (cell count); format: cell-based, rat
Protocol: IEC-6 cells were grown in 60-mm dishes. […] Values are means±SE for 3 cultures.
as §1

[5] = tested on: IEC-18 cells; test: Growth of confluent cultures of IEC-18 cells (cell count); format: cell-based, rat; details: for EC50: read-out: half-maximal concentration (K1/2) for growth stimulation
Protocol: Confluent cultures of IEC-18 cells were prepared. One day later, medium was aspirated and replaced with 5 ml of DMEM containing CS (0.5%) and insulin, without (control) or with mitogenic peptide 58-99 (8 μg/ml). Sister plates receiving 1 ml medium and different amounts of peptide 67-85 were incubated at 1 hr at 38° C. on a CO2 incubator, and then an additional 4 ml of medium was added to each dish. Peptide 58-99 was added to 2 of the 4-sister plates at each concentration of peptide 67-85, and the number of cells was counted. […] Stimulation of cell growth by mitogenic peptide 58-99 was completely abolished by preincubation of cells with 0.25 μg/ml of peptide 67-85. […] Values for the number of cells per culture are shown relative to multiplication of cells exposed to the vehicle during the same period.
Urea (6 M) was employed to release proteins from the insoluble fraction solubilize rhAMP-18 containing the His6-tag (SEQ ID NO: 16), and make it available to bind to the Ni^2+-charged resin from which it was subsequently eluted with a gradient of imidazole (0 to 200 mM). The amount of eluted rhAMP-18 was measured using the BCA assay, and the appearance of a single band at the predicted size of 19-20 kD was confirmed by SDS-PAGE followed by immunoblotting. To determine if eluted rhAMP-18 renatured to assume a structure that was mitogenic, aliquots of the eluate (following removal of urea and imidazole by dialysis) were added to cultures of IEC-18 cells and the number of cells was counted 4 days later. […] AMP peptide 77-97 refers to the mature protein; same as peptide 97-117 of human precursor protein: Table 1. These observations indicate that biologically active recombinant human AMP-18 that can be utilized in diverse clinical situations is available. The mitogenic potency of rhAMP-18 is in the nanomolar range which would be expected for a native gastric cell growth factor that participates in the maintenance and repair of the stomach in vivo.
as §1

[6] = tested on: occludin, ZO-1, ZO-2, claudin-5, E-cadherin, JAM; test: Accumulation of tight and adherens junction proteins in C2 cells (immunoblot of insoluble fraction, confocal microscopy); format: cell-based, human; details: 8 hr
Protocol: To find out how the peptide exerts its cytoprotective effect, C2 cell monolayers were treated with AMP peptide, and oxidant injury was induced with monochloramine 18 hours later. Changes in the levels of specific tight junction (TJ) proteins were checked. Cells were lysed, and proteins of the insoluble/particulate fraction were studied by immunoblotting. […] This observation represents the first evidence that AMP peptide enhances accumulation of specific TJ proteins in colonic epithelial cells. […] To carry out this experiment, C2 cells were exposed to AMP peptide for different periods of time, the NP-40-insoluble fraction was obtained, Western blots were prepared, and the amount of each immunoreactive protein was quantified. A 65% increase in immunoreactivity of each protein compared to control was detected for occludin after 2 hr, and for ZO-1 at 8 hr. Hsc73, which is constitutively expressed in these cells, was not altered by exposure to AMP peptide for up to 18 hr.
Confluent monolayers of C2 cells were treated with AMP peptide or vehicle for 8 hr. Cells were then collected, proteins in the NP-40-insoluble fraction were separated by SDS-PAGE, immunoblots were prepared, and the relative amounts of immunoreactive proteins were compared by densitometric analysis. […] These changes appear relatively specific for occludin, ZO-1, ZO-2, claudin-5, E-cadherin, and JAM because they were not observed for several other proteins localized in the TJ (claudin-1, claudin-2), adherens junction (β-catenin), plasma membrane (Na-K-2Cl cotransporter, α or β subunit of Na-K-ATPase), or cytosol (Rho A, hsc73).
To better understand the mechanism(s) by which AMP peptide enhances accumulation of TJ-associated proteins, experiments were performed to determine whether the peptide exerted its effect at the apical or basolateral surface of C2 cells. Monolayers of C2 cells were grown on Transwell filters, AMP peptide (8:g/ml) was added to the apical or basolateral compartment of the Transwell, and cells were harvested 8 hr later. The NP-40-insoluble fraction was obtained, its proteins separated, and immunoblots were prepared.

[7] = tested on: AGS cells; test: Growth of gastric epithelial AGS cells (cell count four days later); format: cell-based, human; details: peptide 77-97 8 μg/ml, EGF 50 ng/ml at saturating doses
Protocol: as §1

[8] = tested on: SK-GT5 cells; test: Growth of SK-GT5 gastroesophageal adenocarcinoma cells; format: cell-based; details: concentration-dependent
Protocol: as §1

[9] = tested on: HAE cells; test: Growth of human antrum epithelial (HAE) cells (cell count 4 days later); format: cell-based; details: peptide 77-97 8 μg/ml, EGF 50 ng/ml, 4 days
Protocol: as §2, §1

[10] = tested on: Caco2/bbe (C2) cells; test: Transepithelial electrical resistance (TER) of Caco2/bbe (C2) cell monolayers after injury; format: cell-based, human; details: monochloramine 0.3 mM, 45 min; rhAMP-18 100 nanomolar or peptide 3.7 micromolar pre-treatment; oxidant alone ~35%
Protocol: as §3
C2 cell monolayers were grown in DMEM containing FBS (5%) and transferrin (10 μg/ml) on collagen-coated polycarbonate filters until a stable TER was reached (225 Ωcm^2). At time 0, cells were exposed to no DSS (control), or DSS (4%) in the upper compartment of the Transwell. AMP peptide 77-97 (8 μg/ml) was added to the upper and lower compartments of the Transwell 1 day prior to the addition of DSS at time 0. TER of DSS-injured cultures treated with vehicle decreased by ˜70% at 45 min, whereas peptide-treated cultures declined ˜10% at that time. […] Values are means for ≧6 cultures.
Confluent C2 cell monolayers were prepared on Transwells until a stable TER was established. Medium was replaced with fresh medium containing FBS (0.1%) alone (control), or with either rhAMP-18 (100 nanomolar) or peptide 77-97 (3.7 micromolar). After 18 hr, monochloramine (0.3 mM) was added to both compartments of the Transwell, and cultures received either vehicle (control), vehicle plus oxidant, rhAMP-18 and oxidant, or peptide 77-97 and oxidant, after which TER was measured.
To determine whether AMP peptide could speed recovery of TER after DSS-induced colonic cell injury, a highly sought-after functional characteristic of an agent designed to treat IBD, C2 cell monolayers were exposed to DSS (5%) for 10 min which reduced TER to 33±6% of the control value (FIG. 29, left panel). DSS was removed by aspirating the medium and replacing it with fresh medium. AMP peptide 77-97 (8 μg/ml) or vehicle was added to the culture medium, and TER was measured 18 hr later. In the presence of the vehicle, TER increased from 33% to 66±7% of the control value, whereas cells exposed to AMP peptide reached a value 112±4% of control.
To determine if the cytoprotective effect of AMP peptide is mediated at the level of the actin cytoskeleton, C2 cell monolayers were exposed to cytochalasin D, an agent known to disrupt actin filaments and compromise barrier function (Madara et al., 1986).
To determine if AMP peptide could play a cytoprotective role in GDS, a study was carried out in C2 cell monolayers that were exposed to the PA-I lectin. […] Next the effect of AMP peptide was studied in the mouse model of P. aeruginosa-induced-GDS (Laughlin et al., 2000) using female Balb/c mice subjected to 30% hepatectomy, injection of a solution of living P. aeruginosa into the cecum, and food deprivation postoperatively. All 8 of the mice survived surgery.

[11] = tested on: stomach and intestinal epithelial cells; test: Concentrations at which gastric peptide mediators exert their effects in culture; format: cell-based

Molecule | growth of NCI N-87 cells [1] | migration from the wound edge compared with vehicle [2] | loss of TER after oxidant exposure [3] | growth stimulation of IEC-6 cells (in words) [4] | increase in cell number ([5]; 3 days, peptide 58-99 8 μg/ml, EGF 50 ng/ml, vehicle 290%) | accumulation of occludin and ZO-1 (specificity) ([6]; peptides 8 μg/ml, EGF 50 ng/ml) | growth stimulation of AGS cells (in words) [7] | growth of SK-GT5 cells [8] | proliferation of HAE cells (in words) [9] | concentration of maximal mitogenic effect ([5]; FIG. 18) | growth stimulation of IEC-18 cells (in words) ([5]; added alone, peptides up to 8 μg/ml) | EC50 ([5]; confluent IEC-18 cultures, FIG. 13) | EC50 ([5]; recently purified rhAMP-18, FIG. 18) | decline in TER after monochloramine [10] | immunoreactive ZO-1 and occludin versus vehicle-treated cells ([6]; 100 nanomolar, laser densitometry) | concentrations at which physiological effects can occur [11]
EGF: polypeptide mitogen used for comparison at 50 ng/ml [reference compound] | stimulated | stimulated cell movement | 35-40% | stimulated | 402% | not replicated | stimulated growth; also recorded: mitogenic | stimulated | stimulated proliferation |  |  |  |  |  |  | 
rhAMP-18: recombinant human AMP-18 with N-terminal His6-tag replacing the signal peptide, expressed in E. coli (SEQ ID NO: 27) (protein, N-terminal His6 tag) MRGSHHHHHHGSNYNIDVNDDNNNAGSGQQSVSVNNEHNVANVDNNNGWDSWNSIWDYGNGFAATRLFQKKTCIVHKMKKEVMPSIQSLDALVKEKKLQGKGPGGPPPKGLMYSVNPNKVDDLSKFGKNIANMCRGIPTYMAEEMQEASLFFYSGTCYTTSVLWIVDISFCGDTVEN |  |  |  |  |  |  |  |  |  | 5 nM | stimulates cell proliferation to the same maximal extent | ~30 nM | ~5 nM | ~10% | about two-fold | < 50 nM
